Measured values as given in patent publication US6399568B1, “Cyclic tetrapeptide derivatives and medicinal use thereof” (Japan Energy Corporation, priority 1997, dated 2002).
Non-standard residues stand in square brackets, D forms with d. Residues, ends and D or L forms follow the SMILES beside them. *: point of attachment. Asu = N[C@@H](CCCCCC(=O)O)C(=O)O; NHOH = ON*

Experiments:
[1] = test system: mouse malignant melanoma B16 cell line; assay: Cell proliferation inhibition (72 hours); assay type: cell-based; details: read-out: 50% proliferation inhibiting concentration B16 (nM) mean
Excerpt: In order to verify the action of the cyclic tetrapeptide derivative according to the present invention in inhibiting cell proliferation in cancerized cells, the action on the proliferation of the aforementioned B16/BL6 cells was investigated. The evaluation of cell proliferation rates was done utilizing a commercially available measuring kit, specifically, from Promega under the trade name CellTiter 96 Aqueous Non-Radioactive Proliferation Assay Kit. In the measuring kit, the amount of products through reduction of a reagent tetrazolium compound (3-(4,5-dimethylthiazol-2-yl)-5-(3-carboxymethoxyphenyl)-2-(4-sulfophenyl)-2H-tetrazolium, inner salt; MTS) by viable animal cells is determined by detecting spectrophotometrically the color generated from the products. Since the amount of products is proportional to the amount of viable cells, this kit is utilized to evaluate the amount of viable cells.
According to the procedure of Test Example 1, B16/BL6 cells are inoculated in a 96 well microplate and cultured for 24 hours. Then, 10 μl of a solution of the source solution of a compound to be tested which has been diluted to a predetermined amount per well is added. Thereafter, culture is continued for additional 48 hours and 20 μl of a reagent solution in the aforementioned CellTiter 96 Aqueous Non-Radioactive Proliferation Assay Kit is then added. After incubation is continued at 37° C. for 1 hour, the amount of color generation is measured as an absorbance at 490 n musing a microplate reader.
The amount of cell proliferation of a group to which a compound to be tested is added is expressed in a relative value as compared to the standard cell proliferation (100%) in a control group to which no compound to be tested is added. For each compound tested, the amounts of cell proliferation were measured at different concentrations of addition and the dependence of the quantitative cell proliferation on the concentration of addition was investigated. From the results, a concentration of addition at which the amount of cell proliferation was inhibited by 50% relative to the amount of cell proliferation in the control group without addition was determined.
The test method was in accordance with the above-mentioned procedure, except that the period of incubation after the addition of a compound was 72 hours.
As illustrative examples, results are shown for an evaluation using mouse malignant melanoma B16/BL6 and B16 cell lines; leukemia L1210 cell line, colon cancer Colon26 cell line, and liver cancer MH134 cell line as cancer cells. For the cell proliferation inhibiting action of each compound tested for these cancer cells, 50% proliferation inhibiting concentrations are shown in Table 4.

L1210 = assay: In vivo anti-cancer activity in mouse (ascites tumor system); details: for Median Survival days (T/C %): L1210 ascites, CDF1 mouse
Method: (§1) With respect to an ascites tumor system, in vivo anti-cancer activity of the cyclic tetrapeptide compounds according to the present invention was evaluated using cancer-carrying mouse. The cancer cells used were L1210, B16, Colon26and MH134. These cancer cells were cultured in a conventional manner and suspended in PBS, and 10^5 cells of L1210, or 10^6 cells of B16, Colon26 or MH134 were intraperitoneally transplanted into each mouse (100 μl/mouse). The mouse used was CDF1, BDF1, CDF1 or C3H/HeN (male, 7 weeks in age) for L1210, B16, Colon 26or MH134, respectively. Drug administration was started from the day next to the transplantation of cancer cells. For L1210, 0.5% carboxymethyl cellulose Na suspension and for other cancer cells, PBS solution (actually, as suspension neutralized with NaOH) were continuously administered everyday (100 μl/mouse). The period of administration was 4 days for L1210, 9 days for B16 and MH134, and 8 days for Colon26.
(§2) After the administration period passed, the mice administered were bred and median survival days were calculated on the basis of the number of days from the transplantation of cancer cells to death. The percent ratio (T/C%) between the median survival days (C) for a control group to which an equal amount of a drug-free solution was administered and the median survival days (T) of the treated group administered with the drug was determined.

MH134 = assay: as above; details: for Median Survival days (T/C %): MH134 ascites, C3H/HeN mouse
Method: as §1, §2

B16 [2] = assay: as above; details: for Median Survival days (T/C %): B16 ascites, BDF1 mouse
Method: as §1, §2

Colon26 = assay: as above; details: for Median Survival days (T/C %): Colon26 ascites, CDF1 mouse
Method: as §1, §2

Meth A = assay: In vivo anti-cancer activity in mouse (solid tumor system)
Method: (§3) Three mouse cancers Colon26, Meth A and B16 were used to evaluate in vivo anti-cancer activity of the cyclic tetrapeptide compounds according to the present invention in a solid tumor system. The cancer cells were cultured in a conventional manner, suspended in PBS and intradermally transplanted into a mouse ventral portion (10^5). The mouse used was CDF1, Balb/c or BDF1 (male, 7 weeks in age) for Colon 26, Meth A or B16, respectively. On day-4, 7 and 10 for Colon 26, or on day-7, 10, 13 and 16 for Meth A and B16 (day-0 being the day of cancer transplantation), a given amount of solution containing a predetermined amount of a compound to be tested was administered into the tail vein (10, 3 and 1 mg/kg; 2 ml/kg). In this example, the solution for administration used was PBS suspension (as neutralized with NaOH). On day-14 for Colon26 and on day-21 for Meth A and B16, the size of tumor (shorter and longer diameters) was measured. The tumor weight was estimated from the value obtained by calculation from the equation: ½×longer diameter×shorter diameter^2. Anti-tumor effects were based on the estimated tumor weight used as a measure and a tumor weight was estimated for a control group to which an equal amount of a drug-free solution was added; % inhibition was determined on the basis of the difference between the estimated tumor weights for the treated and control groups.

Colon 26 = assay: as above; details: measured day-14, estimated from diameters
Method: as §3

B16 [3] = assay: as above; details: measured day-21, estimated from diameters
Method: as §3

B16/BL6 cells = assay: MHC class-I molecule expression promoting activity; assay type: cell-based, mouse; details: mean of a plurality of assays; 72 hours
Method: The cancer cells used were mouse melanoma cells, B16/BL6 cells, provided by, the National Cancer Institute, U.S.A. Said cells were cultivated in MEM media supplemented with 10% FBS at 37° C. in the presence of 5% carbon dioxide in an humidified incubator.
A compound to be tested was preliminarily dissolved in dimethyl sulfoxide (DMSO) and adjusted to a concentration of 100 mM or 10 mM (source solution).
Said B16/BL6 cells were inoculated on 96 well microplate at a cell density of 5000 cells per well, each well containing 200 μl of said medium. […] Thereafter, each well was once washed with PBS (phosphate buffered saline) and floating cells and the medium were removed. Then, the well was treated with 0.1% glutaraldehyde solution for 3 minutes to fix the cells.
The amount of MHC class-I molecule expressed on the surface of the fixed cells was measured by the following method. Anti-H-2K^bD^bD^d antibody, which is an antibody against mouse MHC classI molecule (commercially available from Meiji Milk Co., Ltd), was used as a primary antibody, biotinylated anti-mouse IgG+M (commercially available from Chemicon) was used as a secondary antibody, and streptavidin-β-galactosidase conjugate (commercially available from BRL) was reacted as a labelling enzyme. The amount of the thus labelled enzyme β-galactosidase was measured in a microplate reader by recording the fluorescent intensity (excitation: 365 nm, fluorescence: 450 nm) derived from the enzymaticreaction product using 4-methylumbelliferyl-β-D-galactoside (commercially available from Nacalai Tesque) as a substrate. […] The value obtained by subtracting said background level from the, actually measured value (an apparent value including the background level) was the true measurement reflecting the amount of expressed MHC class-I molecule.
A group without the addition of any compound to be tested was used as a reference group and the measurement of MHC class-I molecule expressed in said group was used as a standard value. The amount of MHC class-I molecule expressed at a concentration of addition of each test compound is shown as a relative amount, said standard value taken as one (1). For each compound to be tested, various concentrations of addition were selected to investigate the dependency of MHC class-I molecule expression promoting action on the concentration of addition.

[4] = 0.015 mg/mouse everyday for 9 days
[5] = 0.05 mg/mouse everyday for 9 days
[6] = 0.15 mg/mouse everyday for 9 days

CC[C@H](C)[C@@H]1NC(=O)[C@@H](Cc2ccc(OC)cc2)NC(=O)[C@H](CCCCCC(=O)NO)NC(=O)[C@H]2CCCN2C1=O [HDA-31, cyclo(-L-Asu(NHOH)-D-Tyr(Me)-L-Ile-D-Pro-)] (cyclo([Asu](NHOH)[dY](Me)I[dP]))
IC50 [1]: 44.2 nM
life-saving effect (L1210; L1210 ascites tumor): obviously exhibited a life-saving effect
Median Survival days (T/C %) (L1210; 0.015 mg/mouse everyday for 4 days): 113%
Median Survival days (T/C %) (L1210; 0.15 mg/mouse everyday for 4 days): 125%
Median Survival days (T/C %) (L1210; 1.5 mg/mouse everyday for 4 days): 37.5%
life-saving effect (MH134; MH134 ascites tumor): no life-saving effect was observed
Median Survival days (T/C %) (MH134; [4]): 95.8%
Median Survival days (T/C %) (MH134; [5]): 85.4%
Median Survival days (T/C %) (MH134; [6]): 91.7%
life-saving effect (B16 [2]; B16 ascites tumor): obviously exhibited a life-saving effect
Median Survival days (T/C %) (B16 [2]; [4]): 117%
Median Survival days (T/C %) (B16 [2]; [5]): 119%
Median Survival days (T/C %) (B16 [2]; [6]): 139%
life-saving effect (Colon26; Colon26 ascites tumor): no life-saving effect was observed
Median Survival days (T/C %) (Colon26; 0.015 mg/mouse everyday for 8 days): 90.9%
Median Survival days (T/C %) (Colon26; 0.05 mg/mouse everyday for 8 days): 86.4%
Median Survival days (T/C %) (Colon26; 0.15 mg/mouse everyday for 8 days): 63.6%
tumor weight (Meth A; 1 mg/kg tail vein on day-7, 10, 13 and 16, measured day-21, estimated from diameters): 2100 ± 570 mg
tumor weight (Meth A; 3 mg/kg tail vein on day-7, 10, 13 and 16, measured day-21, estimated from diameters): 1230 ± 500 mg
tumor weight (Meth A; 10 mg/kg tail vein on day-7, 10, 13 and 16, measured day-21, estimated from diameters): 1470 ± 500 mg
tumor weight (Colon 26; Colon 26, 1 mg/kg tail vein on day-4, 7 and 10): 756 ± 25 mg
tumor weight (Colon 26; Colon 26, 3 mg/kg tail vein on day-4, 7 and 10): 677 ± 155 mg
tumor weight (Colon 26; Colon 26, 10 mg/kg tail vein on day-4, 7 and 10): 726 ± 123 mg
tumor weight (B16 [3]; B16, 1 mg/kg tail vein on day-7, 10, 13 and 16): 258 ± 184 mg
tumor weight (B16 [3]; B16, 3 mg/kg tail vein on day-7, 10, 13 and 16): 280 ± 152 mg
tumor weight (B16 [3]; B16, 10 mg/kg tail vein on day-7, 10, 13 and 16): 120 ± 112 mg
conc. for 2-fold expression (nM) mean (B16/BL6 cells): 1.41 nM
